Assay results taken from US11492335B2, “Aryl or heteroaryl triazolone derivatives or salts thereof, or pharmaceutical compositions comprising the same” (YUHAN CORPORATION, priority 2018, dated 2022).
Where a name gives a salt, the structure may show the parent alone. Read-outs that look alike come from different tables or passages of the source.

What was measured:
Format in all cases: biochemical
[1] = target: T1, recombinant human DAO (diamine oxidase) (Homo sapiens, UniProt P19801); test: Activity on recombinant human DAO, Amplex Red method, 1 mM putrescine substrate; details: recombinant human DAO, read-out: Inhibitory Activity (IC50, nM) DAO
T1 construct: purchased R&D systems
T1 sequence (P19801 20-751): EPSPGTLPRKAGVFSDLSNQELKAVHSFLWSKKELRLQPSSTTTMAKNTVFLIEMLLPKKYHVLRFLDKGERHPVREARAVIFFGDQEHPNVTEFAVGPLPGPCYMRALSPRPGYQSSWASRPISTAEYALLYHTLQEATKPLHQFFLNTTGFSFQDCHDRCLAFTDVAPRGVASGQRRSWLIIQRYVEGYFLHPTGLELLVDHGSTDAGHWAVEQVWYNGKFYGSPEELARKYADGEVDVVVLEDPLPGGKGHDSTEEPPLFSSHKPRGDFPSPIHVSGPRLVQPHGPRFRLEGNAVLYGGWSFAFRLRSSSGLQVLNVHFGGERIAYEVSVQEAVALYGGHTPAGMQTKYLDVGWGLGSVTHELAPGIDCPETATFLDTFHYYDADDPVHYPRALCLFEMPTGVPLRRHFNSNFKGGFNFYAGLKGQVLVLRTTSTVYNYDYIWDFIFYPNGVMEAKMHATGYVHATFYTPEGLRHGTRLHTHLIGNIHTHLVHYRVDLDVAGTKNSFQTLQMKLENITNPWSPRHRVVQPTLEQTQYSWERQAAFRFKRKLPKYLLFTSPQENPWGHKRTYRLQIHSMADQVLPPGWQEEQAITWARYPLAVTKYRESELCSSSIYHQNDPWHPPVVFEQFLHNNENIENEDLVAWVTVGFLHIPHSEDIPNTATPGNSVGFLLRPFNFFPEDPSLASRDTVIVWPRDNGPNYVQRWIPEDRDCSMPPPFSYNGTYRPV
Summary of the method: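 Inhibition of recombinant human DAO (diamine oxidase, R&D systems) was assessed with the Amplex Red Hydrogen Peroxide Assay Kit. Hydrogen peroxide produced from 1 mM putrescine was detected through an HRP-coupled reaction that converts Amplex Red into fluorescent resorufin, read at 544 nm excitation and 590 nm emission. IC50 values came from four-parameter logistic fits in GraphPad Prism.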

[2] = target: T2, recombinant human MAO-B (monoamine oxidase-B) (Homo sapiens, UniProt P27338); test: Activity on recombinant human MAO-B, Amplex Red method, 1 mM benzylamine substrate; details: read-out: Inhibitory Activity (IC50, nM) MAO-B
T2 construct: purchased Sigma-Aldrich
T2 sequence (P27338 1-520): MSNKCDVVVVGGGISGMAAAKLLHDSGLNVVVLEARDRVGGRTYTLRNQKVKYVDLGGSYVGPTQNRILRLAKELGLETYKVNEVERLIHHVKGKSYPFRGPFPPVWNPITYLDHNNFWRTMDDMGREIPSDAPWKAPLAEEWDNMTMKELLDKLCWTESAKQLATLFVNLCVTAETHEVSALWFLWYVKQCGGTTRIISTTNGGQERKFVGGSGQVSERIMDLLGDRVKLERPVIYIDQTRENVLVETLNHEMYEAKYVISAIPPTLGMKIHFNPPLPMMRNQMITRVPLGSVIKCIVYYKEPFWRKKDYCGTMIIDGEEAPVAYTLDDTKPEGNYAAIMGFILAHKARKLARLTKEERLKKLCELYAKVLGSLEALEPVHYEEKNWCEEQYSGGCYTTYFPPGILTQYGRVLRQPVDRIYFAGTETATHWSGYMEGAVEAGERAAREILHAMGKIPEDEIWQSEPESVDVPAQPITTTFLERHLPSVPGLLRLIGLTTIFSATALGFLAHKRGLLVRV
Summary of the method: (§1)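 Enzyme in pH 7.4 phosphate buffer; 30 min, 37° C with compound (DMSO <1%); start with 200 uM Amplex Red + 1 U/mL HRP + tyramine 0.5 mM (MAO-A) or benzylamine 1 mM (MAO-B); kinetic read ex 544/em 590, 1-2 h; % rate decrease vs DMSO control → IC50, 4-parameter fit.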

[3] = target: T3, recombinant human VAP-1 (Homo sapiens, UniProt Q16853); test: Activity on recombinant human VAP-1, Amplex Red HRP-coupled hydrogen peroxide assay, benzylamine substrate; details: recombinant human VAP-1, benzylamine substrate, read-out: Inhibitory Activity (IC50, nM) human VAP-1
T3 construct: purchased R&D systems
T3 sequence (Q16853 1-763): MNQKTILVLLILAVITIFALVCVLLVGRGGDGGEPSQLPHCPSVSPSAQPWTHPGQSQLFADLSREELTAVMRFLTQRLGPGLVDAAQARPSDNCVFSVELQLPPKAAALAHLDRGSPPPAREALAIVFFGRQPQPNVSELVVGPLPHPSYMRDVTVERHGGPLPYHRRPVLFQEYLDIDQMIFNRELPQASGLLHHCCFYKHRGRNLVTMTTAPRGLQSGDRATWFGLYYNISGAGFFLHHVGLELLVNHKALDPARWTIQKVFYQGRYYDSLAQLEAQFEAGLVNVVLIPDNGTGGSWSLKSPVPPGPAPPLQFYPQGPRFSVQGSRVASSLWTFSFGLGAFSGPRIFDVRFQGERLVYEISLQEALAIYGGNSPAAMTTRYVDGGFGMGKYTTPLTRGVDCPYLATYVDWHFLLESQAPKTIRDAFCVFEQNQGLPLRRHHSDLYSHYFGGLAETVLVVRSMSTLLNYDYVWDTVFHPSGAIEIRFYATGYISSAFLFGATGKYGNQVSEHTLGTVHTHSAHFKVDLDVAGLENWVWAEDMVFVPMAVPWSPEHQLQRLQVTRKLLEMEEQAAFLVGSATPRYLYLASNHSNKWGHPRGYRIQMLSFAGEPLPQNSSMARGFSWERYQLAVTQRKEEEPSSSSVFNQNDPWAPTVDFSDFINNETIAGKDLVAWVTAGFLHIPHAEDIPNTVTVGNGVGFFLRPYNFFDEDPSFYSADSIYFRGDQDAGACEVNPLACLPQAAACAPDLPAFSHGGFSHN
Summary of the method: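 Enzyme in 50 mM sodium phosphate (pH 7.4) is exposed to test compound for 30 min at 37 °C. Benzylamine (1 mM) with HRP and Amplex Red then starts the reaction, and the fluorescence rate, relative to a DMSO-only control, gives IC50.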

[4] = target: T4, recombinant human MAO-A (monoamine oxidase-A) (Homo sapiens, UniProt P21397); test: Activity on recombinant human MAO-A, Amplex Red method, 0.5 mM tyramine substrate; details: read-out: Inhibitory Activity (IC50, nM) MAO-A
T4 construct: purchased Sigma-Aldrich
T4 sequence (P21397 1-527): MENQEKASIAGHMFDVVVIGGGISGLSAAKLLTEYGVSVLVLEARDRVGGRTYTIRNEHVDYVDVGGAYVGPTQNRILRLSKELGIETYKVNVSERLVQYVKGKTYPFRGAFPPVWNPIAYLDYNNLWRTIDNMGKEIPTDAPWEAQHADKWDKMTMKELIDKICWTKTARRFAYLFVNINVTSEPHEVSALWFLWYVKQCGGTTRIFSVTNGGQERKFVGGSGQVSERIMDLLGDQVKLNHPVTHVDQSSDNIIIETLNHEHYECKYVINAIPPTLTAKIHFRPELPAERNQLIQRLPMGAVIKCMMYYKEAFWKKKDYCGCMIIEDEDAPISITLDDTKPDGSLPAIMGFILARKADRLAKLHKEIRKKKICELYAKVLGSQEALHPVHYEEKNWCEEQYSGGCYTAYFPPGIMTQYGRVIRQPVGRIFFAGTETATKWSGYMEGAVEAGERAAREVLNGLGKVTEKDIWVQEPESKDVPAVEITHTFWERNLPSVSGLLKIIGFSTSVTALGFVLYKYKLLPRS
Summary of the method: as §1

[5] = 1 mM putrescine, * = between 10 and 100 nM, ** = between 300 and 1000 nM

| Compound | IC50 [1, 5] [nM] | IC50 ([2]; 1 mM benzylamine) [nM] | IC50 ([3]; 30 min preincubation at 37° C.) [nM] | IC50 ([4]; 0.5 mM tyramine) [nM] | IC50 ([1]; 1 mM putrescine substrate) [nM] | IC50 ([2]; 1 mM benzylamine substrate) [nM] | IC50 [3] [nM] | IC50 ([4]; 0.5 mM tyramine substrate) [nM] |
| --- | --- | --- | --- | --- | --- | --- | --- | --- |
| CC(=O)Nc1ccc(-c2cccc(-n3cnn(C/C(=C/F)CN)c3=O)c2)cc1 [Example 57, N-(3′-{1-[(2E)-2-(aminomethyl)-3-fluoroprop-2-en-1-yl]-5-oxo-1,5-dihydro-4H-1,2,4-triazol-4-yl}biphenyl-4-yl)acetamide hydrochloride] | < 100 | > 10000 | 0.38 | 1250 | – | – | – | – |
| NC/C(=C\F)Cn1ncn(-c2ncc(-c3ccc4c(c3)NCC4=O)cc2F)c1=O [Example 163, 6-(6-{1-[(2E)-2-(aminomethyl)-3-fluoroprop-2-en-1-yl]-5-oxo-1,5-dihydro-4H-1,2,4-triazol-4-yl}-5-fluoropyridin-3-yl)-1,2-dihydro-3H-indol-3-one] | – | – | – | – | 1.3 | 740 | 0.56 | > 100000 |
| Cc1cc(-n2cnn(C/C(=C/F)CN)c2=O)ncc1-c1ccc2cn[nH]c2c1 [Example 160, 2-[(2E)-2-(aminomethyl)-3-fluoroprop-2-en-1-yl]-4-[5-(1H-indazol-6-yl)-4-methylpyridin-2-yl]-2,4-dihydro-3H-1,2,4-triazol-3-one] | – | – | – | – | < 100 | 137 | 0.37 | 46200 |
| Cn1cc(C#Cc2cccc(-n3cnn(C/C(=C/F)CN)c3=O)n2)cn1 [Example 257, 2-[(2E)-2-(aminomethyl)-3-fluoroprop-2-en-1-yl]-4-{6-[(1-methyl-1H-pyrazol-4-yl)ethynyl]pyridin-2-yl}-2,4-dihydro-3H-1,2,4-triazol-3-one hydrochloride] | – | – | – | – | 90 | 5700 | 0.4 | > 100000 |
| CN(C)S(=O)(=O)c1ccc(-c2cccc(-n3cnn(C/C(=C/F)CN)c3=O)c2)cc1 [Example 55, 3′-{1-[(2E)-2-(aminomethyl)-3-fluoroprop-2-en-1-yl]-5-oxo-1,5-dihydro-4H-1,2,4-triazol-4-yl}-N,N-dimethylbiphenyl-4-sulfonamide hydrochloride] | 1 | 1500 | 0.3 | > 100000 | – | – | – | – |
| Cc1cc(-n2cnn(C/C(=C/F)CN)c2=O)ccc1Br [Example 16, 2-[(2E)-2-(aminomethyl)-3-fluoroprop-2-en-1-yl]-4-(4-bromo-3-methylphenyl)-2,4-dihydro-3H-1,2,4-triazol-3-one hydrochloride] | 12 | 141 | 0.74 | 32000 | – | – | – | – |
| CC(=O)Nc1ccc(-c2cnc(-n3cnn(C/C(=C/F)CN)c3=O)c(C)c2)cc1 [Example 134, N-[4-(6-{1-[(2E)-2-(aminomethyl)-3-fluoroprop-2-en-1-yl]-5-oxo-1,5-dihydro-4H-1,2,4-triazol-4-yl}-5-methylpyridin-3-yl)phenyl]acetamide hydrochloride] | 1200 | > 10000 | 0.55 | > 100000 | – | – | – | – |
| Cc1cc(-n2cnn(C/C(=C/F)CN)c2=O)ncc1Br [Example 34, 2-[(2E)-2-(aminomethyl)-3-fluoroprop-2-en-1-yl]-4-(5-bromo-4-methylpyridin-2-yl)-2,4-dihydro-3H-1,2,4-triazol-3-one hydrochloride] | 13 | 363 | 0.6 | 6100 | – | – | – | – |

The next lines start with the values.

| IC50 [1, 5] [nM] | IC50 ([2]; 1 mM benzylamine) [nM] | IC50 ([3]; 30 min preincubation at 37° C.) [nM] | IC50 ([4]; 0.5 mM tyramine) [nM] | IC50 ([1]; 1 mM putrescine substrate) [nM] | IC50 ([2]; 1 mM benzylamine substrate) [nM] | IC50 [3] [nM] | IC50 ([4]; 0.5 mM tyramine substrate) [nM] | Compound |
| --- | --- | --- | --- | --- | --- | --- | --- | --- |
| 1.6 | < 10 | 0.21 | 198 | – | – | – | – | NC/C(=C\F)Cn1ncn(-c2ccc(-c3ccc4c(c3)OCO4)cc2F)c1=O [Example 45, 2-[(2E)-2-(aminomethyl)-3-fluoroprop-2-en-1-yl]-4-[4-(1,3-benzodioxol-5-yl)-2-fluorophenyl]-2,4-dihydro-3H-1,2,4-triazol-3-one hydrochloride] |
| 120 | 2630 | 2 | > 100000 | – | – | – | – | NC/C(=C/F)Cn1ncn(-c2cccc(-c3ccc4c(c3)OCCO4)c2)c1=O [Example 94, 2-[(2Z)-2-(aminomethyl)-3-fluoroprop-2-en-1-yl]-4-[3-(2,3-dihydro-1,4-benzodioxin-6-yl)phenyl]-2,4-dihydro-3H-1,2,4-triazol-3-one hydrochloride] |
| < 100 | 221 | 0.48 | > 10000 | – | – | – | – | NC/C(=C\F)Cn1ncn(-c2cccc(-c3ccc4c(c3)OCO4)c2)c1=O [Example 93, 2-[(2E)-2-(aminomethyl)-3-fluoroprop-2-en-1-yl]-4-[3-(1,3-benzodioxol-5-yl)phenyl]-2,4-dihydro-3H-1,2,4-triazol-3-one hydrochloride] |
